Test [1] concerns the target T1, Adrenergic receptor alpha-1 (Rattus norvegicus, UniProt P15823+P23944+P43140).
T1 sequence (P15823 whole entry): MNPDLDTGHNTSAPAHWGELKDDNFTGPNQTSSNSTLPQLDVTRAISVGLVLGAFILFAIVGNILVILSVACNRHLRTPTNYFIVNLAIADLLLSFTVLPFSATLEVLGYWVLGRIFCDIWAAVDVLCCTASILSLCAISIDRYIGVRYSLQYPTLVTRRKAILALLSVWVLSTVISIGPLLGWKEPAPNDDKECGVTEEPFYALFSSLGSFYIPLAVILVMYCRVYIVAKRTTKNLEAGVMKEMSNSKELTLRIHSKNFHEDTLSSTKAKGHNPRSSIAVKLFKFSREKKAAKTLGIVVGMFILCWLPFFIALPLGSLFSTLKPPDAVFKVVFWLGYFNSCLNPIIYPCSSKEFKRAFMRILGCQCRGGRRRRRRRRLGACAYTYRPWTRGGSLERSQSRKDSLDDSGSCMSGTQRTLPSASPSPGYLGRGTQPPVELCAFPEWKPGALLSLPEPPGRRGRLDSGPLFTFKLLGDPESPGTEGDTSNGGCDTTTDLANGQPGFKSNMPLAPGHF
T1 sequence (P23944 whole entry): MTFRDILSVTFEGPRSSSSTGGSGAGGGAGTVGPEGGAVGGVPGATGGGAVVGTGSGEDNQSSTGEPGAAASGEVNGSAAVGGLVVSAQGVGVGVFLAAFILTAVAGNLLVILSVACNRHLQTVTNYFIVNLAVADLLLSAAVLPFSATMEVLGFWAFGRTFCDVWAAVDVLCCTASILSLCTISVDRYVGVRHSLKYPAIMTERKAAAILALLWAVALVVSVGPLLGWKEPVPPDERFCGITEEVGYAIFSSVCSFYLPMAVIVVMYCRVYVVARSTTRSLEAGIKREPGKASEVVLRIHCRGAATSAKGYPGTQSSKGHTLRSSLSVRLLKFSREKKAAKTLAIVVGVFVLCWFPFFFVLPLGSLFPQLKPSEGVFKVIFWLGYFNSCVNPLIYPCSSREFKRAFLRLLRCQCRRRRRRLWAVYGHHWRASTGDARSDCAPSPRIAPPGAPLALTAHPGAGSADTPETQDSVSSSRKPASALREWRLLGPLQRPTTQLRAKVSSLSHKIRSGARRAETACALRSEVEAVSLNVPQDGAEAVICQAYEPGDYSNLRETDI
T1 sequence (P43140 whole entry): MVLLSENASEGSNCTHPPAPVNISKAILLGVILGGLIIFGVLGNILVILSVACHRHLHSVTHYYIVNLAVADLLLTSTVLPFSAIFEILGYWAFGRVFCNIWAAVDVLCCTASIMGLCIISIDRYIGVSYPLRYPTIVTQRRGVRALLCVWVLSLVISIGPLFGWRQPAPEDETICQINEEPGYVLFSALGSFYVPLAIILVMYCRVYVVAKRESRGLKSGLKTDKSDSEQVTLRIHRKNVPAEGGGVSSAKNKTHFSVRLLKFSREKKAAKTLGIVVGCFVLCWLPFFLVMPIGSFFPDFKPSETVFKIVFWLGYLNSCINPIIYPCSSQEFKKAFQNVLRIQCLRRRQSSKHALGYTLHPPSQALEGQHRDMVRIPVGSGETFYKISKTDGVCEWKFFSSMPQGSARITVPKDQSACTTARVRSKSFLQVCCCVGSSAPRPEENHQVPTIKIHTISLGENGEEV
Put plainly: Binding affinity against alpha-1 adrenergic receptor in rat cerebral cortex tissue using [3H]WB-4101 as radioligand. The class given is tissue-based.

For test [2], the species on record is Rattus norvegicus. Description: Selectivity ratio of IC50 for dopamine receptor and Alpha-1 receptor.
Test [3] has as its target T2, 5-hydroxytryptamine receptor 1A (Rattus norvegicus, UniProt P19327).
T2 sequence (P19327 whole entry): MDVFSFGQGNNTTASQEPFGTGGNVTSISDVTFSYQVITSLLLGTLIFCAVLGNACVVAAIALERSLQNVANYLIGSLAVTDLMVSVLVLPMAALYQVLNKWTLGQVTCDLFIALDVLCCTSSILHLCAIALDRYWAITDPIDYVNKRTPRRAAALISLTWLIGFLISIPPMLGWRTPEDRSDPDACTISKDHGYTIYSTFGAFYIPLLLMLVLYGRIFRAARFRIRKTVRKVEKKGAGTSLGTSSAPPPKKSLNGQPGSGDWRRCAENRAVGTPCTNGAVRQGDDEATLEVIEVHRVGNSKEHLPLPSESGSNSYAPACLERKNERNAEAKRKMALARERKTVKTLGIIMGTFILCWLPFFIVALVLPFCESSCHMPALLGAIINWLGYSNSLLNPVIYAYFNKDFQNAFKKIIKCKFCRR
Description: Binding affinity against 5-hydroxytryptamine 1A receptor using in rat hippocampal tissue using [3H]8-OH-DPAT as radioligand. The class given is tissue-based, Hippocampus.

For test [4], the target named is T3, D(2) dopamine receptor (Rattus norvegicus, UniProt P61169). Put plainly: Binding affinity against dopamine receptor D2 in rat corpus striatal tissue using [3H]spiperone as radioligand. It is filed as tissue-based, Striatum.
T3 sequence (P61169 whole entry): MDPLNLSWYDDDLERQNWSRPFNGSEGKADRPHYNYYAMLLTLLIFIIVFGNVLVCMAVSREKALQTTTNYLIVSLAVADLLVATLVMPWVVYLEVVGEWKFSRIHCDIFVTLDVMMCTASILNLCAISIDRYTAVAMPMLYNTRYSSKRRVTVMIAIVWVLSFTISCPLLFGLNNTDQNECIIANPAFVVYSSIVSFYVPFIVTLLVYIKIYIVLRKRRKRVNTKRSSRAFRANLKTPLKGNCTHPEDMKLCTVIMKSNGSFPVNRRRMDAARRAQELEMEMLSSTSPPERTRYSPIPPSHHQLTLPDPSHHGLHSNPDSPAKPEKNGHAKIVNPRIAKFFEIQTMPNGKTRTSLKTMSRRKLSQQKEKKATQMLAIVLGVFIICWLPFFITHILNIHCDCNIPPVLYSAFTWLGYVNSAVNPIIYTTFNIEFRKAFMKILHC
In test [5] the target is T3, D(2) dopamine receptor.
Test [6] has as its target T2, 5-hydroxytryptamine receptor 1A. Put plainly: Displacement of [3H]8-OH-DPAT from rat hippocampal 5-hydroxytryptamine 1A receptor; IA-Inactive. It is filed as tissue-based, Hippocampus. For orientation: Displacement assays read how much labelled ligand stays bound in the presence of the test substance.
The test system of test [7] is Rattus norvegicus. Put plainly: In vivo inhibition of conditional avoidance response in rats(CAR), after po administration. It is filed as functional.
The target of test [8] is T4, 5-hydroxytryptamine receptor 2A (Rattus norvegicus, UniProt P14842). Put plainly: Binding affinity against rat 5-hydroxytryptamine 2 receptor in rat cerebral cortex tissue using [3H]spiperone as radioligand; IA-Inactive. The class given is tissue-based.
T4 sequence (P14842 whole entry): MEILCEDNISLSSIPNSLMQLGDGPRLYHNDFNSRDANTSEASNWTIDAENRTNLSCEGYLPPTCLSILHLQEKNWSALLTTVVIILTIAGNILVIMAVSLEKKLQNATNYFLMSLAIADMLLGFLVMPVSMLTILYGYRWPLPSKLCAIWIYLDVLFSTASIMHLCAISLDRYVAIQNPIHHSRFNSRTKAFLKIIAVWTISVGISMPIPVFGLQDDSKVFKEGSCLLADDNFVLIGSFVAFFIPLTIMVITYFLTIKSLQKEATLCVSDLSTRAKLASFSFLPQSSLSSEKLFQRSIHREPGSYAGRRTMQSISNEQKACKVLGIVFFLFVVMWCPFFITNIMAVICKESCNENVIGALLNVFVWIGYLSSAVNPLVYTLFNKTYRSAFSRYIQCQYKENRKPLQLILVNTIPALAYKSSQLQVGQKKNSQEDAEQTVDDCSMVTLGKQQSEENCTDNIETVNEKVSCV
Test [9] has as its target T2, 5-hydroxytryptamine receptor 1A. Put plainly: Binding affinity against 5-hydroxytryptamine 1A receptor of rat hippocampal tissue with [3H]5-HT. It is filed as tissue-based, Hippocampus.
Test [10] concerns Rattus norvegicus. Put plainly: In vivo inhibition of conditional avoidance response in rats(CAR), after im administration. The class given is functional.
Test [11] addresses T3, D(2) dopamine receptor. Put plainly: Binding affinity against Dopamine receptor D2 receptor of rat corpus striatal tissue with [3H]spiperone.
The test system of test [12] is Rattus norvegicus. Put plainly: In vivo inhibition of conditional avoidance response in rats(CAR), after sc administration. It is filed as functional.
Test [13] has as its target T4, 5-hydroxytryptamine receptor 2A. Description: Binding affinity against rat 5-hydroxytryptamine 2 receptor in rat cerebral cortex tissue using [3H]spiperone as radioligand. It is filed as tissue-based.

pIC50: −log10 of the molar value. A value given as a limit tells only on which side of the number the result lay.

As a reminder, the IC50 is the concentration needed to halve the response being measured. Higher therefore signals lower potency. As a reminder, the pIC50 is the negative decadic logarithm of the IC50, by convention in mol/L. The ED50 is the midpoint of the dose-response relation. Higher therefore signals weaker potency.

`O=C1CC2(CCC(O)C2)CC(=O)N1CCCCN1CCN(c2nsc3ccccc23)CC1` (stereo not drawn) registered an IC50 in [1] of 0.876 nM. In the test listed under Rattus norvegicus [2], the Ratio stood at 60. The pIC50 in test [3] was 8.43; at D(2) dopamine receptor [4] it was 7.28.

`O=S1(=O)N=C(N2CCNCC2)c2ccccc21` [BENZISOTHIAZOLE-3YL-PIPERAZINE SULFOXIDE]: the 50% inhibitory concentration (IC50) result (against D(2) dopamine receptor [5]; in test [6]; in test [8]) was “Not Active” in each case. Moreover, in the test on Rattus norvegicus [7], the ED50 is greater than 100 mg/kg.

As to `[O-][s+]1nc(N2CCNCC2)c2ccccc21` (stereo not drawn) [BITP-SULFONE], the IC50 result (against D(2) dopamine receptor [5]; in test [6]; in test [8]) was “Not Active” throughout. Moreover, the ED50 in the test on Rattus norvegicus [7] is greater than 100 mg/kg.

Regarding `COc1ccc2snc(N3CCNCC3)c2c1`, the IC50 result (on D(2) dopamine receptor [5]; in test [8]) was “Not Active” throughout. This compound showed a pIC50 in test [9] of 7.68.

Regarding `COc1cccc2snc(N3CCNCC3)c12`, the IC50 result (on D(2) dopamine receptor [5]; in test [8]) was “Not Active” in each case. The compound further showed a pIC50 in test [9] of 6.92.

As for `O=C1CC2(CCCC2)CC(=O)N1CCC(O)CN1CCN(c2nsc3ccccc23)CC1` (stereo not drawn), the IC50 in test [1] is listed as 8.3 nM. Also, in the test filed under Rattus norvegicus [2], the Ratio came out at 13. Besides, the pIC50 in test [3] was 7.60; at D(2) dopamine receptor [4], 6.95.

As for `O=C1CC2(CCCC2)CC(=O)N1CCCCN1CCN(c2nsc3ccccc23)CC1` [TIOSPIRONE], it took a dose of 0.35 mg/kg to reach the 50% effect level with Rattus norvegicus [10] (ED50). The pIC50 on D(2) dopamine receptor [11] is 8.08.

Take `O=C1CC2(CCCC2)CC(=O)N1CCCCN1CCN(c2n[s+]([O-])c3ccccc23)CC1` (stereo not drawn): the IC50 result (against D(2) dopamine receptor [5]; in test [6]; in test [8]) was “Not Active” each time. In the test on Rattus norvegicus [7], this compound gave an ED50 of 11 mg/kg.

For the compound `O=C1CCC2(C1)CC(=O)N(CCCCN1CCN(c3n[s+]([O-])c4ccccc34)CC1)C(=O)C2` (stereo not drawn), the IC50 entry (against D(2) dopamine receptor [5]; in test [6]; in test [8]) was “Not Active” throughout. Moreover, the ED50 in the test with Rattus norvegicus [12] is greater than 100 mg/kg.

On to `O=C1CC2(CCCC2)C(O)C(=O)N1CCCCN1CCN(c2nsc3ccccc23)CC1` (stereo not drawn), for which the ED50 in the test on Rattus norvegicus [10] is 1 mg/kg. Further, the pIC50 in [3] was 8.30.

`O=C1CC2(CCCC2)CC(=O)N1CCC(O)CN1CCN(c2n[s+]([O-])c3ccccc23)CC1` (stereo not drawn): the IC50 entry (on D(2) dopamine receptor [5]; in test [6]; in test [8]) was “Not Active” in each case. In the test on Rattus norvegicus [7], this compound returned an ED50 greater than 50 mg/kg.

`O=C1CC2(CCC(O)C2)CC(=O)N1CCCCN1CCN(C2=NS(=O)(=O)c3ccccc32)CC1` (stereo not drawn): the IC50 result (at D(2) dopamine receptor [5]; in test [6]; in test [8]) was “Not Active” throughout. Also, the ED50 in the test with Rattus norvegicus [12] is greater than 100 mg/kg.

Turning to `O=C1CN(C2=NS(=O)(=O)c3ccccc32)CCN1`, the IC50 entry (on D(2) dopamine receptor [5]; in test [6]; in [8]) was “Not Active” throughout. Moreover, the ED50 in the test on Rattus norvegicus [12] was greater than 50 mg/kg.

With `COc1cccc2c(N3CCNCC3)nsc12`, the IC50 result (on D(2) dopamine receptor [5]; in [6]; in test [8]) was “Not Active” each time.

With `c1ccc2c(N3CCNCC3)nsc2c1` [BENZISOTHIAZOLE-3-YL-PIPERAZINE], at D(2) dopamine receptor [5], the IC50 result was “Not Active”. In addition, the ED50 in the test on Rattus norvegicus [7] was greater than 100 mg/kg. In test [3], this compound gave a pIC50 of 6.72.

In the case of `O=C1CC2(CCCC2)C(O)C(=O)N1CCCCN1CCN(c2n[s+]([O-])c3ccccc23)CC1` (stereo not drawn), the 50% inhibitory concentration (IC50) result (against D(2) dopamine receptor [5]; in test [6]; in [8]) was “Not Active” throughout.

With `COc1ccc2c(N3CCNCC3)nsc2c1`, the IC50 entry (on D(2) dopamine receptor [5]; in [6]; in [8]) was “Not Active” each time.

In turn, `O=C1CC2(CCCC2)C(C(=O)NCCCCN2CCN(c3nsc4ccccc34)CC2)O1` (stereo not drawn) came in with an IC50 in test [1] of 2.5 nM. The pIC50 in test [13] was 8.35; in test [3], 7.01; on D(2) dopamine receptor [4] it was 6.82. In addition, the Ratio in the test listed under Rattus norvegicus [2] was 60.

For `O=C1CC2(CCCC2)CC(=O)N1CCCCN1CCN(C2=NS(=O)(=O)c3ccccc32)CC1`, the IC50 result (against D(2) dopamine receptor [5]; in test [6]; in test [8]) was “Not Active” throughout. In addition, the ED50 in the test with Rattus norvegicus [10] is greater than 10 mg/kg.

In the case of `O=C1CC2(CCC(O)C2)CC(=O)N1CCCCN1CCN(c2n[s+]([O-])c3ccccc23)CC1` (stereo not drawn), the IC50 result (against D(2) dopamine receptor [5]; in test [6]; in [8]) was “Not Active” throughout. For the same compound, the ED50 with Rattus norvegicus [12] is greater than 100 mg/kg.

Consider `O=C1CCC2(C1)CC(=O)N(CCCCN1CCN(c3nsc4ccccc34)CC1)C(=O)C2`, for which the IC50 in [1] amounted to 1.3 nM. For the same compound, the Ratio in the test listed under Rattus norvegicus [2] was 52. In the test on Rattus norvegicus [12], the ED50 was greater than 60.3 mg/kg. Also, the results for the pIC50 (in test [3]; at D(2) dopamine receptor [4]) were 8.52 and 7.17, respectively.

Turning to `O=C1CC2(CCC(O)C2)CC(=O)N1CCC(O)CN1CCN(c2nsc3ccccc23)CC1` (stereo not drawn), in test [1], the IC50 turned out to be 7.15 nM. Moreover, in the test listed under Rattus norvegicus [2], the Ratio came to 69. For the same compound, the pIC50 in test [3] was 7.85; on D(2) dopamine receptor [4] it was 6.31.

For the compound `O=C1CC2(CCCC2)C(O)C(=O)N1CCCCN1CCN(C2=NS(=O)(=O)c3ccccc32)CC1` (stereo not drawn), the IC50 result (at D(2) dopamine receptor [5]; in test [6]; in test [8]) was “Not Active” throughout.

The values above are taken from ChEMBL document CHEMBL1125892 (J Med Chem, 1991).
